pEC50: −log10 of the molar value.
Molecular target: T1, X-box-binding protein 1 (Homo sapiens, UniProt P17861)
T1 sequence (P17861 whole entry): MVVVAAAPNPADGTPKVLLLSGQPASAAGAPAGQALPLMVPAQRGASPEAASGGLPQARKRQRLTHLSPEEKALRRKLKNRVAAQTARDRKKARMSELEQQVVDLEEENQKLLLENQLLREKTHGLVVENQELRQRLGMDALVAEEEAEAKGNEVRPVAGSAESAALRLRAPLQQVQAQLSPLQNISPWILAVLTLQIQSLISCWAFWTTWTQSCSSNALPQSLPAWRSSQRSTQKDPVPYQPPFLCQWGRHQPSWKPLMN
Assay: Transactivation of XBP1 (unknown origin) transfected in rat IEC-6 cells after 48 hrs by dual luciferase reporter gene assay

Structure (SMILES)	pEC50
C1=C2c3cc4c(cc3CCN2Cc2c1ccc1c2OCO1)OCO4	8.64
CC(=O)CC1c2c(ccc3c2OCO3)C=C2c3cc4c(cc3CCN21)OCO4 (stereo not drawn)	6.66
C=C(C(C)=O)c1c2c3c(ccc2c(C)c2[n+]1CCc1cc4c(cc1-2)OCO4)OCO3	6.68
